{
  "source": "patent US20260256881A1",
  "about": "“COMPOSITIONS COMPRISING PEDF-DERIVED SHORT PEPTIDES FOR THE TREATMENT OF NEUROTROPHIC KERATITIS DISEASES” (BRIM Biotechnology, Inc., priority 2022, published 2026)",
  "format_in_all_cases": "in vivo",
  "key": {"[1]": {"system": "NK model in Chinchilla rabbits (ophthalmic branch (V1) of trigeminal nerve injured with sodium hydroxide)", "experiment": "Tear film break-up time (TFBUT), NK rabbit model", "settings": "for TFBUT: X ± SEM, n = 8", "experimental": "(§1) The NK model is established in Chinchilla rabbits by using a chemical method to destroy the ophthalmic branch (V1) of trigeminal nerve to induce NK. Briefly, animals were anesthetized. […] The trigeminal nerve was carefully separated from surrounding fasciae, and the ophthalmic nerve (V1) of trigeminal nerve was isolated and injured with sodium hydroxide solution. The V1 injury was performed for unilateral eye in each animal for 5 days prior to treatment.\n(§2) A total of 16 animals were assigned randomly into two groups based on corneal ulcer areas at Day 1 prior to the treatments, and the animals received either BRM424 ophthalmic solution (OS containing 0.03% BRM424; TA-1 group) or Vehicle (TA-2 group) in the surgical eye three times daily (TID, eye drops) for 28 days. During the study period, the corneal ulcer areas, corneal fluorescein staining, corneal sensitivity, Schirmer test, and Tear film break-up time (TFBUT) at baseline (Day 0), Day 4, Day 8, Day 15, Day 22, and Day 29 were measured."}, "[2]": {"system": "NK model in Chinchilla rabbits (ophthalmic branch (V1) of trigeminal nerve injured with sodium hydroxide)", "experiment": "Schirmer test for tear production, NK rabbit model", "settings": "for Schirmer Test: X ± SEM, n = 8", "experimental": "as §1, §2\nHowever, the tear volumes of the TA-1 group at Day 29 were about 2-fold higher than that at Day 0."}, "[3]": {"system": "NK model in Chinchilla rabbits (ophthalmic branch (V1) of trigeminal nerve injured with sodium hydroxide)", "experiment": "Corneal fluorescein staining (FL score), NK rabbit model", "design": "Fluorescein Staining Score: scale not given here", "settings": "for Fluorescein Staining Score: X ± SEM, n = 8", "experimental": "as §1, §2\nCornea damage may be assessed using corneal fluorescein staining. […] The mean value of corneal fluorescein sodium staining scores at Day 0 was 3.62±0.18 for both the TA-1 and TA-2 groups and fell below 3 (TA-1=1.38±0.18, TA-2=2.36±0.42) by Day 8, indicating a quick onset of action. […] The fluorescein staining score of the TA-1 group reached 1 by Day 29."}, "[4]": {"system": "NK model in Chinchilla rabbits (ophthalmic branch (V1) of trigeminal nerve injured with sodium hydroxide)", "experiment": "Corneal ulceration area, slit-lamp with cobalt blue light, NK rabbit model", "settings": "for Corneal Ulceration Area: X ± SEM, n = 8", "experimental": "as §1, §2\nCorneal ulceration areas were measured from images taken during slit-lamp examination with cobalt blue light. […] At Day 0, the corneal ulceration areas were 25.98±1.88 mm^2 for the TA-1 group and 27.65±2.66 mm^2 for the TA-2 group, and these areas were reduced to 7.80±1.45 mm^2 and 13.30±2.36 mm^2 by Day 8 for the TA-1 group and TA-2 group, respectively."}, "[5]": {"system": "NK model in Chinchilla rabbits (ophthalmic branch (V1) of trigeminal nerve injured with sodium hydroxide)", "experiment": "Central corneal sensitivity with Von Frey filaments, NK rabbit model", "settings": "for Corneal Sensitivity, Contact force (Nylon size) / Corneal Sensitivity, Contact force: X ± SEM, n = 8", "experimental": "as §1, §2\nCentral corneal sensitivity was monitored using Von Frey filaments. Various forces of calibrated Von Frey filaments (0.008-300 g) were applied to the center of the cornea surface of immobilized animal. The mechanical threshold response was determined by assessing treated-eye blinking response evoked by the same calibrated Von Frey filaments twice out of three times. FIG. 4A and FIG. 4B show results for corneal sensitivity tests. Prior to the dose administration (Day 0), there was no corneal reflex in all animals, even when using the coarsest nylon filament (Force 0.008-300 g)."}, "[6]": {"settings": "Day 0 (baseline, prior to treatment)"}, "[7]": {"settings": "Day 4, 0.03% BRM424 ophthalmic solution TID"}, "[8]": {"settings": "Day 8, 0.03% BRM424 ophthalmic solution TID"}, "[9]": {"settings": "Day 15, 0.03% BRM424 ophthalmic solution TID"}, "[10]": {"settings": "Day 22, 0.03% BRM424 ophthalmic solution TID"}, "[11]": {"settings": "Day 29, 0.03% BRM424 ophthalmic solution TID"}, "[12]": {"settings": "after 29 days of topical dose administrations"}, "[13]": {"settings": "Day 0 (baseline, prior to treatment), listed as TA-1"}},
  "data": [
    {"sequence": "SLGAEQRTESIIHRALYYDLISSPDIHGT (ophthalmic solution 0.03%; listed as Homo sapiens) [BRM424, PEDF-derived short peptide (PDSP), residues 93-121 of PEDF]", "values": [
      {"measurement": "TFBUT", "setting": "[1]; [6]", "value": "5.50 ± 0.33", "unit": "s"},
      {"measurement": "TFBUT", "setting": "[1]; [7]", "value": "4.88 ± 0.48", "unit": "s"},
      {"measurement": "TFBUT", "setting": "[1]; [8]", "value": "6.75 ± 0.45", "unit": "s"},
      {"measurement": "TFBUT", "setting": "[1]; [9]", "value": "5.13 ± 0.55", "unit": "s"},
      {"measurement": "TFBUT", "setting": "[1]; [10]", "value": "4.38 ± 0.32", "unit": "s"},
      {"measurement": "TFBUT", "setting": "[1]; [11]", "value": "5.38 ± 0.32", "unit": "s"},
      {"measurement": "TFBUT, difference between TA-1 and TA-2 (vehicle) groups", "setting": "[1]; [12]", "value": "no significant difference"},
      {"measurement": "Schirmer Test", "setting": "[2]; [6]", "value": "5.63 ± 0.71", "unit": "mm"},
      {"measurement": "Schirmer Test", "setting": "[2]; [7]", "value": "6.00 ± 0.93", "unit": "mm"},
      {"measurement": "Schirmer Test", "setting": "[2]; [8]", "value": "5.50 ± 1.02", "unit": "mm"},
      {"measurement": "Schirmer Test", "setting": "[2]; [9]", "value": "6.38 ± 0.86", "unit": "mm"},
      {"measurement": "Schirmer Test", "setting": "[2]; [10]", "value": "6.50 ± 1.24", "unit": "mm"},
      {"measurement": "Schirmer Test", "setting": "[2]; [11]", "value": "10.75 ± 1.59", "unit": "mm"},
      {"measurement": "Tear volumes at Day 29 relative to Day 0", "setting": "[2]; Day 29 vs Day 0, same group", "value": "about 2 fold"},
      {"measurement": "Tear volumes, difference between TA-1 and TA-2 (vehicle) groups", "setting": "[2]; [12]", "value": "no significant difference"},
      {"measurement": "Fluorescein Staining Score", "setting": "[3]; [6]", "value": "3.62 ± 0.18"},
      {"measurement": "Fluorescein Staining Score", "setting": "[3]; [13]", "value": "3.62±0.18"},
      {"measurement": "Fluorescein Staining Score", "setting": "[3]; Day 4, 0.03% BRM424 ophthalmic solution, eye drops TID", "value": "2.00 ± 0.38"},
      {"measurement": "Fluorescein Staining Score", "setting": "[3]; Day 8, 0.03% BRM424 ophthalmic solution, eye drops TID", "value": "1.38 ± 0.18"},
      {"measurement": "Fluorescein Staining Score", "setting": "[3]; Day 8, 0.03% BRM424 ophthalmic solution, eye drops TID, listed as TA-1", "value": "1.38±0.18"},
      {"measurement": "Fluorescein staining score, difference between TA-1 and TA-2 (vehicle) groups", "setting": "[3]; Day 8 and Day 15, P<0.05", "value": "Significant difference"},
      {"measurement": "Fluorescein Staining Score", "setting": "[3]; Day 15, 0.03% BRM424 ophthalmic solution, eye drops TID", "value": "1.63 ± 0.36"},
      {"measurement": "Fluorescein Staining Score", "setting": "[3]; Day 22, 0.03% BRM424 ophthalmic solution, eye drops TID", "value": "1.25 ± 0.16"},
      {"measurement": "Fluorescein Staining Score", "setting": "[3]; Day 29, 0.03% BRM424 ophthalmic solution, eye drops TID", "value": "1.00 ± 0.19"},
      {"measurement": "Fluorescein Staining Score", "setting": "[3]; Day 29, 0.03% BRM424 ophthalmic solution, eye drops TID, listed as TA-1", "value": 1},
      {"measurement": "Corneal Ulceration Area", "setting": "[4]; [6]", "value": "25.98 ± 1.88", "unit": "mm^2"},
      {"measurement": "Corneal Ulceration Area", "setting": "[4]; [13]", "value": "25.98±1.88", "unit": "mm^2"},
      {"measurement": "Corneal Ulceration Area", "setting": "[4]; Day 4, 0.03% BRM424 ophthalmic solution, eye drops TID, surgical eye", "value": "13.63 ± 2.51", "unit": "mm^2"},
      {"measurement": "Corneal ulceration area reduction compared with vehicle (TA-2) group", "setting": "[4]; Day 8, Day 15 and Day 29, p<0.05", "value": "more than that of TA-2 group"},
      {"measurement": "Corneal Ulceration Area", "setting": "[4]; Day 8, 0.03% BRM424 ophthalmic solution, eye drops TID, surgical eye", "value": "7.80 ± 1.45", "unit": "mm^2"},
      {"measurement": "Corneal Ulceration Area", "setting": "[4]; Day 8, 0.03% BRM424 ophthalmic solution, eye drops TID, surgical eye, listed as TA-1", "value": "7.80±1.45", "unit": "mm^2"},
      {"measurement": "Corneal Ulceration Area", "setting": "[4]; Day 15, 0.03% BRM424 ophthalmic solution, eye drops TID, surgical eye", "value": "9.93 ± 2.46", "unit": "mm^2"},
      {"measurement": "Corneal Ulceration Area", "setting": "[4]; Day 22, 0.03% BRM424 ophthalmic solution, eye drops TID, surgical eye", "value": "7.29 ± 2.11", "unit": "mm^2"},
      {"measurement": "Corneal Ulceration Area", "setting": "[4]; Day 29, 0.03% BRM424 ophthalmic solution, eye drops TID, surgical eye", "value": "4.81 ± 1.44", "unit": "mm^2"},
      {"measurement": "Corneal Sensitivity, Contact force (Nylon size)", "setting": "[5]; Day 0 (baseline, prior to treatment), Von Frey filament that triggered corneal reflex", "value": "6.65 ± 0.00"},
      {"measurement": "Corneal Sensitivity, Contact force", "setting": "[5]; Day 0 (baseline, prior to treatment), force that triggered corneal reflex", "value": "300.00 ± 0.00", "unit": "g"},
      {"measurement": "Corneal Sensitivity, Contact force", "setting": "[5]; [7]", "value": "300.00 ± 0.00", "unit": "g"},
      {"measurement": "Corneal Sensitivity, Contact force (Nylon size)", "setting": "[5]; [7]", "value": "6.65 ± 0.00"},
      {"measurement": "Corneal Sensitivity, Contact force", "setting": "[5]; [8]", "value": "300.00 ± 0.00", "unit": "g"},
      {"measurement": "Corneal Sensitivity, Contact force (Nylon size)", "setting": "[5]; [8]", "value": "6.65 ± 0.00"},
      {"measurement": "Corneal Sensitivity, Contact force", "setting": "[5]; [9]", "value": "235.75 ± 42.18", "unit": "g"},
      {"measurement": "Corneal Sensitivity, Contact force (Nylon size)", "setting": "[5]; [9]", "value": "6.41 ± 0.16"},
      {"measurement": "Corneal Sensitivity, Contact force", "setting": "[5]; [10]", "value": "300.00 ± 0.00", "unit": "g"},
      {"measurement": "Corneal Sensitivity, Contact force (Nylon size)", "setting": "[5]; [10]", "value": "6.65 ± 0.00"},
      {"measurement": "Corneal Sensitivity, Contact force", "setting": "[5]; [11]", "value": "189.75 ± 53.80", "unit": "g"},
      {"measurement": "Corneal Sensitivity, Contact force (Nylon size)", "setting": "[5]; [11]", "value": "5.93 ± 0.35"},
      {"measurement": "Corneal sensation recovery compared with vehicle (TA-2) group", "setting": "[5]; after 29 days of treatments", "value": "recovered faster with better improvement than the TA-2 group"}
    ]}
  ]
}
